In patent US20220325239A1, “CELL CULTURE” (AGENCY FOR SCIENCE, TECHNOLOGY AND RESEARCH, priority 2019, published 2022):

What was measured:
[1] = tested on: LTR7Y-zsGreen reporter cells; assay: High-throughput small molecule screen for feeder-free maintenance of naïve hESCs (LTR7Y-zsGreen fluorescence); assay type: cell-based, human; settings: 3iL without feeders
Procedure: 3,000 cells cultured in mTeSR1 (STEMCELL Technologies) or 3iL were seeded per well into 384-well plates (Greiner) coated with 30× Matrigel (Corning) or 30× growth factor reduced Matrigel (Corning) in 45 µl of medium. 4 hours after seeding, cells were treated with anti-cancer and anti-kinase libraries (Selleckchem; kinase inhibitor screening library—customised collection of 273 kinase inhibitors, anti-cancer compound library—customized collection of 349 bioactive compounds). Small molecules were used at 3 different concentrations: 100 nM, 1 μM and 10 μM for each condition. 48 hours after the treatment, culture media was renewed concomitant with a second round of treatment with the compounds. […] Images were processed and fluorescence signal was quantified using Columbus Image Data Storage and Analysis System (PerkinElmer). […] Z-score for zsGreen fluorescence was calculated using formula: z=(X−μ)/s.d. where μ—mean, s.d.—standard deviation of whole population, X−integrated intensity of zsGreen divided by total number of cells. […]
We first ensured the quality of the screen by certifying the absence of intra-plate layout biases (FIG. 8I), proper inter-plate alignment (FIG. 8J) and good correlation between replicates (FIG. 8K). Z-scores were then calculated, and compounds that reproducibly scored above noise (z>2 in at least 2 replicates) were regarded as hits (FIG. 1B, S1L). […]

[2] = tested on: naïve hESCs; assay: Naïve pluripotency marker expression after short-term supplementation of hits upon feeder withdrawal (qPCR); assay type: cell-based, human
Description: 3iL and 4 iLA media were supplemented with small molecule compounds at various concentrations for single and combinatory treatments. Small molecules used in the study: Dasatinib (Selleckchem), AZD5438 (TOCRIS), CHIR-98014 (Sigma), Crenolanib (Selleckchem), Saracatinib (Selleckchem), Src Inhibitor-1 (Sigma), Nilotinib (STEMCELL Technologies), Imatinib (STEMCELL Technologies), Dinaciclib (Selleckchem), WH-4-023 (Sigma).
(§1) Total RNA was extracted using TRIzol reagent (Invitrogen) according to manufacturer's protocol followed by DNAase I treatment (Ambion).
(§2) 250-1000 ng of DNAase treated RNA was reverse transcribed using SuperScript II (Invitrogen) and oligo-dT primers (Invitrogen) according to manufacturer's instructions. Reactions were performed in final volume of 20μ1. cDNA was diluted before qPCR analysis.
qPCR was performed using KAPA SYBR FAST master mix (KAPA Biosystem) following standard procedures. qPCR reactions were performed in biological duplicates or triplicates in 384-well plates on the ViiA™ 7 Real-Time PCR System (Life Technologies). Two technical replicates were carried out for each qPCR reaction and data was normalised to GAPDH. The relative abundance of transcripts was calculated using ΔΔC(T) method. […]

[3] = tested on: human cancer cultures; settings: broad spectrum of human cancer cultures; cited from earlier work
[4] = tested on: FINE cells; assay: Withdrawal or replacement of AZD5438 / Dasatinib in FINE culture; assay type: cell-based, human; settings: for morphology after withdrawal from FINE: withdrawal for 3 passages; for sustaining feeder-free naïve hESCs when replacing Dasatinib in FINE: 2 passages
Description: FIG. 4A is a diagram showing brightfield and immunofluorescence staining of KLF4, TFE3 and KLF17 in FINE culture after withdrawal of AZD, Dasa or both for 3 passages. Scale bar=50 μm.
FIG. 4B is a diagram showing quantification of fraction of nuclei positive for naïve-associated transcription factors in hESCs cultured in FINE after withdrawal of AZD, Dasa or both for 3 passages. Mean±SD of three independent experiments.
FIG. 4C is a diagram showing expression of blastocyst-associated transcripts in hESCs cultured in FINE after withdrawal of AZD, Dasa or both for 2 passages. Mean±SD of three independent qPCR experiments.
FIG. 4D and FIG. 4E are diagrams showing expression of blastocyst-associated transcripts in hESCs cultured in FINE after (D) replacement of Dasa with other Src and Bcr-Abl inhibitors or (E) replacement of AZD with Dinaciclib (in H9 line) for 2 passages. Mean±SD of three independent qPCR experiments.
Therefore, we wanted to test if both are also important for the maintenance of naivety in FINE.

[5] = tested on: human tumor xenograft; settings: oral, 50 mg/kg/12 h or 75 mg/kg/day, mice; cited from earlier work
[6] = tested on: cellular CDK substrates; settings: cited from earlier work
[7] = tested on: hESCs; assay: Expression of naïve / blastocyst / 8-cell markers under culture conditions (qPCR, immunofluorescence); assay type: cell-based, human; settings: PD0325901 reduced from 1 μM to 0.3 μM, H9
Procedure: as §1, §2
qPCR was performed using KAPA SYBR FAST master mix (KAPA Biosystem) following standard procedures. qPCR reactions were performed in biological duplicates or triplicates in 384-well plates on the ViiA™ 7 Real-Time PCR System (Life Technologies). Two technical replicates were carried out for each qPCR reaction and data was normalised to GAPDH. The relative abundance of transcripts was calculated using ΔΔC(T) method.
Before fixation with 4% formaldehyde (Sigma) cells were washed with PBS (Gibco) in tissue culture plates (Falcon) for 30 minutes at room temperature. Permeabilization was performed with 1% of Triton-X 100 in PBS followed by blocking step performed in blocking buffer (blocking buffer—8% FBS in PBS-T (PBS-T 1% Tween in PBS)) each for 30 minutes at room temperature. Cells were incubated with primary antibodies, diluted in blocking buffer, overnight at 4° C. with gentle agitation. […]

[8] = tested on: H9 cells; assay: Karyotyping / cytogenetic analysis; assay type: cell-based, human; settings: PD0325901 reduced from 1 μM to 0.3 μM
Procedure: FIG. 7B is a diagram showing summary of cytogenetic analysis of H9 cells (top) under various naïve culture conditions (rows) and passage numbers (columns). Representative karyotypes at various passage numbers in FINE (bottom).
Various hESCs lines were seeded into glass cover slip slides as single cells. Karyotyping service including colcemid treatment and G-band analysis was outsourced with Parkway Laboratory Services.

[9] = tested on: hESC; assay: Adaptation and survival of feeder-free hESCs in 4iLA supplemented with chemical combinations (C1-C21); assay type: cell-based, human; settings: condition 19 background
Description: FIG. 2C is a diagram showing relative survival of hESC culture under 4 iLA supplemented with different chemical combinations conditions (C1-C21) over 9 passages without feeders. 4 iLA was included as control.
We next sought to find a condition that enables stable naïve culture by adapting feeder-free primed hESCs onto media supplemented by one or more of the hits at various concentrations (FIG. 2C, Table E2, below).

## Cc1ncc(-c2ccnc(Nc3ccc(S(C)(=O)=O)cc3)n2)n1C(C)C [AZD5438, 4-[2-Methyl-1-(1-methylethyl)-1H-imidazol-5-yl]-N-[4-(methylsulfonyl)phenyl]-2-pyrimidinamine]
[1]
  outcome of the screen (hit): identified novel regulators of naïve pluripotency
[2]; 3iL, RNA after 6 days
  effect on downregulation of naïve pluripotency markers including LTR7Y: consistently attenuated downregulation
[3]
  antiproliferation activity: displays antiproliferation activity
[4]
  morphology after withdrawal from FINE: caused dispersal of the compact morphology
[5]
  efficacy against human tumor xenograft growth: efficacious
[6]
  inhibition of cellular CDK substrates phosphorylation: effectively inhibits

## Cc1nc(Nc2ncc(C(=O)Nc3c(C)cccc3Cl)s2)cc(N2CCN(CCO)CC2)n1.O [Dasatinib, N-(2-chloro-6-methylphenyl)-2-[[6-[4-(2-hydroxyethyl)-1-piperazinyl]-2-methyl-4-pyrimidinyl]amino]-5-thiazole carboxamide monohydrate]
[1]
  outcome of the screen (hit): identified novel regulators of naïve pluripotency
[2]; 4iLA, RNA after 12 days
  effect on downregulation of naïve pluripotency markers: had the same effect
[4]; compared with AZD5438 withdrawal
  loss of naivety upon withdrawal from FINE: more pronounced effect
[4]
  morphology after withdrawal from FINE: caused dispersal of the compact morphology

## Cc1ccc(NC(=O)c2ccc(CN3CCN(C)CC3)cc2)cc1Nc1nccc(-c2cccnc2)n1 [Imatinib]
[4]
  sustaining feeder-free naïve hESCs when replacing Dasatinib in FINE: failed to sustain

## Cc1cn(-c2cc(NC(=O)c3ccc(C)c(Nc4nccc(-c5cccnc5)n4)c3)cc(C(F)(F)F)c2)cn1 [Nilotinib]
[4]
  sustaining feeder-free naïve hESCs when replacing Dasatinib in FINE: failed to sustain

## O=C(NOC[C@H](O)CO)c1ccc(F)c(F)c1Nc1ccc(I)cc1F [PD0325901, N-[(2R)-2,3-dihydroxypropoxy]-3,4-difluoro-2-(2-fluoro-4-iodoanilino)benzamide]
[7]
  effect of lowered concentration in FINE on naïve pluripotent marker expression: slight adverse effect
[8]
  effect of lowered concentration in FINE on acquisition of chromosomal abnormalities: further delayed acquisition of chromosomal abnormalities

## COc1cc2ncnc(Nc3ccc(Oc4ccccc4)cc3)c2cc1OC [SRCi]
[4]
  sustaining feeder-free naïve hESCs when replacing Dasatinib in FINE: failed to sustain

## COc1ccc(N(C(=O)Oc2c(C)cccc2C)c2ccnc(Nc3ccc(N4CCN(C)CC4)cc3)n2)c(OC)c1 [WH-4-023]
[4]
  sustaining feeder-free naïve hESCs when replacing Dasatinib in FINE: failed to sustain
[9]
  requirement for adaptation and maintenance of feeder-free naïve cells: dispensable
